How the values were obtained:
cIAP1-BIR2 = cIAP1-BIR2 (Homo sapiens (Human), UniProt Q13490); assay: BIR binding assay (FRET competition), cIAP1 BIR2
Summary of the method: (§1)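 615/665 nm FRET ratio. Compound, His-domain and 200 nM AF647-SMAC peptide incubated 60 min, then 2 nM Eu-W1024 for 30 min. Domains: cIAP1-BIR3 50 nM; XIAP-BIR3 100 nM; cIAP1-BIR2, cIAP2-BIR2 325 nM each. 15-pt 3-fold series; variable-slope IC50.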

XIAP-BIR2 = XIAP-BIR2 (Homo sapiens (Human), UniProt P98170); assay: BIR binding assay (FRET competition), XIAP BIR2; settings: FRET competition; read-out: XIAP BIR2 (pIC50) (converted)
Summary of the method: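 Competitive TR-FRET used His-tagged XIAP-BIR2 (200 nM) and 200 nM AlexaFluor647-labelled AVPIAQKSE SMAC peptide in HEPES buffer pH 7.4 with CHAPS, glycerol and DTT, incubated 60 min before 30 min with 2 nM Eu-W1024. The 615/665 nm ratio from a 15-point, 3-fold series was fit with a four-parameter model for IC50/pIC50.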

XIAP-BIR3 = XIAP-BIR3 (Homo sapiens (Human), UniProt P98170); assay: BIR binding assay (FRET competition), XIAP BIR3; settings: for XIAP BIR3 vs BIR2 separation window: fold separation (FS) for XIAP
Summary of the method: as §1

cIAP1-BIR3 = cIAP1-BIR3 (Homo sapiens (Human), UniProt Q13490); assay: BIR binding assay (FRET competition), cIAP1 BIR3; settings: for cIAP1 BIR3 vs BIR2 separation window: fold separation (FS) for cIAP1
Summary of the method: as §1

[1] = tested on: Jurkat HIV-luciferase clones; assay: Jurkat latency reversal assay; format: cell-based; settings: Homo sapiens, 48 h; Jurkat latency reversal assay potency; read-out: Jurkat pEC50 (converted)
Summary of the method: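 EC50 and maximal activation versus vehicle were derived by four-parameter logistic regression of luciferase luminescence. The luminescence was induced in pooled Jurkat HIV-luciferase clones C16, 115 and N6 (5,000 cells/well) after 48 h at 37° C with duplicate 14-point, 3-fold dilutions starting at 10 μM (0.5% DMSO).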

cIAP2-BIR2 = cIAP2-BIR2 (Homo sapiens (Human), UniProt Q13489); assay: BIR binding assay (FRET competition), cIAP2 BIR2
Summary of the method: as §1

cIAP2-BIR3 = cIAP2-BIR3 (Homo sapiens (Human), UniProt Q13489); assay: BIR binding assay (FRET competition), cIAP2 BIR3; settings: for cIAP2 BIR3 vs BIR2 separation window: fold separation (FS) for cIAP2
Sequence of cIAP2-BIR3 (Q13489 238-349): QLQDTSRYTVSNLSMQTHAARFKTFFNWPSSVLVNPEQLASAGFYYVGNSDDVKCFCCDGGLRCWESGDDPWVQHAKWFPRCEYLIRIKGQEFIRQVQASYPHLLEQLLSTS

Sequence of cIAP2-BIR2 (Q13489 158-242): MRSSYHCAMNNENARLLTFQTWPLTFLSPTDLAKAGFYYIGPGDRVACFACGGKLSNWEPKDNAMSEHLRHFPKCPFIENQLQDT
Sequence of cIAP1-BIR2 (Q13490 173-257): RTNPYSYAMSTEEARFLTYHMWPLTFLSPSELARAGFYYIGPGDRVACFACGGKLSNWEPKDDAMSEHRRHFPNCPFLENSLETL
Sequence of cIAP1-BIR3 (Q13490 253-363): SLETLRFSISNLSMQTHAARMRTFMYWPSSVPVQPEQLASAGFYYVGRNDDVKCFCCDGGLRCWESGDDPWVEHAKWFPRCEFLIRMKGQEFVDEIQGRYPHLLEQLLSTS
Sequence of XIAP-BIR3 (P98170 241-356): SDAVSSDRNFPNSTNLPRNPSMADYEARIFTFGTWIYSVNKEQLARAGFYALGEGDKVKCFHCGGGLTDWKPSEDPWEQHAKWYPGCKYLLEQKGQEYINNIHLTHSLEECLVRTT
Sequence of XIAP-BIR2 (P98170 124-240): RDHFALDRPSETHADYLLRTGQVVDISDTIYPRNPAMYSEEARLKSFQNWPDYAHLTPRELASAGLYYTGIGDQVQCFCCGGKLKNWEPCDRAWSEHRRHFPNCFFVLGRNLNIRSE

| SMILES | IC50 (cIAP1-BIR2) [nM] | IC50 (XIAP-BIR2) [nM] | IC50 (XIAP-BIR3) [nM] | XIAP BIR3 vs BIR2 separation window (XIAP-BIR3) | IC50 (cIAP1-BIR3) [nM] | cIAP1 BIR3 vs BIR2 separation window (cIAP1-BIR3) | EC50 [1] [nM] | IC50 (cIAP2-BIR2) [nM] | IC50 (cIAP2-BIR3) [nM] | cIAP2 BIR3 vs BIR2 separation window (cIAP2-BIR3) |
| --- | --- | --- | --- | --- | --- | --- | --- | --- | --- | --- |
| C[C@@H]1CN(CC(=O)N2CC(C)(C)c3[nH]c(=O)c(Cc4ccc(F)cc4)cc32)[C@@H](CN2CCN(CCc3cn(CCCC(=O)N4CCN(C[C@H]5CN[C@H](C)CN5CC(=O)N5CC(C)(C)c6[nH]c(=O)c(Cc7ccc(F)cc7)cc65)[C@H](C)C4)nn3)C[C@H]2C)CN1 [Compound 157] | 1000 to 3160 | 10000 to 51300 | 15.8 to 31.6 | ++++ (FS>10,000) | 7.94 to 15.8 | ++ (1,000>FS>100) | 63.1 to 316 | 22.4 to 1000 | 7.94 to 15.8 | ++ (1,000>FS>100) |
| C[C@@H]1CN(CC(=O)N2CC(C)(C)c3[nH]c(=O)c(Cc4ccc(F)cc4)cc32)[C@@H](CN2CCN(CCc3cn(CCCCC(=O)N4CCN(C[C@H]5CN[C@H](C)CN5CC(=O)N5CC(C)(C)c6[nH]c(=O)c(Cc7ccc(F)cc7)cc65)[C@H](C)C4)nn3)C[C@H]2C)CN1 [Compound 158] | 1000 to 3160 | 10000 to 51300 | 7.94 to 15.8 | ++++ (FS>10,000) | 7.94 to 15.8 | ++ (1,000>FS>100) | 63.1 to 316 | 22.4 to 1000 | 7.94 to 15.8 | ++ (1,000>FS>100) |
| C[C@@H]1CN(CC(=O)N2CC(C)(C)c3[nH]c(=O)c(Cc4ccc(F)cc4)cc32)[C@@H](CN2CCO[C@H](C(=O)NCC(=O)N3CCN(C[C@H]4CN[C@H](C)CN4CC(=O)N4CC(C)(C)c5[nH]c(=O)c(Cc6ccc(F)cc6)cc54)[C@H](C)C3)C2)CN1 [Compound 159, (S)-4-(((2R,5R)-1-(2-(6-(4-fluorobenzyl)-3,3-dimethyl-5-oxo-2,3,4,5-tetrahydro-1H-pyrrolo[3,2-b]pyridin-1-yl)-2-oxoethyl)-5-methylpiperazin-2-yl)methyl)-N-(2-((R)-4-(((2R,5R)-1-(2-(6-(4-fluorobenzyl)-3,3-dimethyl-5-oxo-2,3,4,5-tetrahydro-1H-pyrrolo[3,2-b]pyridin-1-yl)-2-oxoethyl)-5-methylpiperazin-2-yl)methyl)-3-methylpiperazin-1-yl)-2-oxoethyl)morpholine-2-carboxamide] | 22.4 to 1000 | 10000 to 51300 | 7.94 to 15.8 | ++++ (FS>10,000) | 7.94 to 15.8 | ++ (1,000>FS>100) | 63.1 to 316 | 22.4 to 1000 | 1.38 to 7.94 | +++ (10,000>FS>1,000) |
| C[C@@H]1CN(CC(=O)N2CC(C)(C)c3[nH]c(=O)c(Cc4ccc(F)cc4)cc32)[C@@H](CN2CCO[C@H](C(=O)NCCCC(=O)N3CCN(C[C@H]4CN[C@H](C)CN4CC(=O)N4CC(C)(C)c5[nH]c(=O)c(Cc6ccc(F)cc6)cc54)[C@H](C)C3)C2)CN1 [Compound 160, (S)-4-(((2R,5R)-1-(2-(6-(4-fluorobenzyl)-3,3-dimethyl-5-oxo-2,3,4,5-tetrahydro-1H-pyrrolo[3,2-b]pyridin-1-yl)-2-oxoethyl)-5-methylpiperazin-2-yl)methyl)-N-(4-((R)-4-(((2R,5R)-1-(2-(6-(4-fluorobenzyl)-3,3-dimethyl-5-oxo-2,3,4,5-tetrahydro-1H-pyrrolo[3,2-b]pyridin-1-yl)-2-oxoethyl)-5-methylpiperazin-2-yl)methyl)-3-methylpiperazin-1-yl)-4-oxobutyl)morpholine-2-carboxamide] | 1000 to 3160 | 10000 to 51300 | 7.94 to 15.8 | ++++ (FS>10,000) | 7.94 to 15.8 | ++ (1,000>FS>100) | 63.1 to 316 | 1000 to 3160 | 7.94 to 15.8 | +++ (10,000>FS>1,000) |
| Cc1ccc(Cc2cc3c([nH]c2=O)C(C)(C)CN3C(=O)CN2C[C@@H](C)NC[C@@H]2CN2CCO[C@H](C(=O)NCc3ccc(CNC(=O)[C@@H]4CN(C[C@H]5CN[C@H](C)CN5CC(=O)N5CC(C)(C)c6[nH]c(=O)c(Cc7ccc(C)cc7)cc65)CCO4)cc3)C2)cc1 [Compound 163, (2S,2′S)-N,N′-(1,4-phenylenebis(methylene))bis(4-(((2R,5R)-1-(2-(3,3-dimethyl-6-(4-methylbenzyl)-5-oxo-2,3,4,5-tetrahydro-1H-pyrrolo[3,2-b]pyridin-1-yl)-2-oxoethyl)-5-methylpiperazin-2-yl)methyl)morpholine-2-carboxamide)] | 22.4 to 1000 | 10000 to 51300 | 7.94 to 15.8 | ++++ (FS>10,000) | 1.38 to 7.94 | ++ (1,000>FS>100) | 12.6 to 63.1 | 22.4 to 1000 | 1.38 to 7.94 | +++ (10,000>FS>1,000) |
| C[C@@H]1CN(CC(=O)N2CC(C)(C)c3[nH]c(=O)c(Cc4ccc(C(F)F)cc4)cc32)[C@@H](CN2CCO[C@H](C(=O)NCc3ccc(CNC(=O)[C@@H]4CN(C[C@H]5CN[C@H](C)CN5CC(=O)N5CC(C)(C)c6[nH]c(=O)c(Cc7ccc(C(F)F)cc7)cc65)CCO4)cc3)C2)CN1 [Compound 166, (2S,2′S)-N,N′-(1,4-phenylenebis(methylene)) bis(4-(((2R,5R)-1-(2-(6-(4-(difluoromethyl)benzyl)-3,3-dimethyl-5-oxo-2,3,4,5-tetrahydro-1H-pyrrolo[3,2-b]pyridin-1-yl)-2-oxoethyl)-5-methylpiperazin-2-yl)methyl)morpholine-2-carboxamide)] | 22.4 to 1000 | 10000 to 51300 | 15.8 to 31.6 | ++++ (FS>10,000) | 7.94 to 15.8 | ++ (1,000>FS>100) | 316 to 3310 | 22.4 to 1000 | 1.38 to 7.94 | +++ (10,000>FS>1,000) |
| C[C@@H]1CN(CC(=O)N2CC(C)(C)c3[nH]c(=O)c(Cc4c(F)cc(F)cc4F)cc32)[C@@H](CN2CCO[C@H](C(=O)NCc3ccc(CNC(=O)[C@@H]4CN(C[C@H]5CN[C@H](C)CN5CC(=O)N5CC(C)(C)c6[nH]c(=O)c(Cc7c(F)cc(F)cc7F)cc65)CCO4)cc3)C2)CN1 [Compound 167, (2S,2′S)-N,N′-(1,4-phenylenebis(methylene)) bis(4-(((2R,5R)-1-(2-(3,3-dimethyl-5-oxo-6-(2,4,6-trifluorobenzyl)-2,3,4,5-tetrahydro-1H-pyrrolo[3,2-b]pyridin-1-yl)-2-oxoethyl)-5-methylpiperazin-2-yl)methyl)morpholine-2-carboxamide)] | 22.4 to 1000 | 10000 to 51300 | 15.8 to 31.6 | ++++ (FS>10,000) | 7.94 to 15.8 | ++ (1,000>FS>100) | 0.49 to 12.6 | 22.4 to 1000 | 1.38 to 7.94 | ++ (1,000>FS>100) |
| C[C@@H]1CN(CC(=O)N2CC(C)(C)c3[nH]c(=O)c(Cc4ccc(Cl)cc4C(=O)N(C)C)cc32)[C@@H](CN2CCO[C@H](C(=O)NCc3ccc(CNC(=O)[C@@H]4CN(C[C@H]5CN[C@H](C)CN5CC(=O)N5CC(C)(C)c6[nH]c(=O)c(Cc7ccc(Cl)cc7C(=O)N(C)C)cc65)CCO4)cc3)C2)CN1 [Compound 172, (2S,2′S)-N,N′-(1,4-phenylenebis(methylene)) bis(4-(((2R,5R)-1-(2-(6-(4-chloro-2-(dimethylcarbamoyl)benzyl)-3,3-dimethyl-5-oxo-2,3,4,5-tetrahydro-1H-pyrrolo[3,2-b]pyridin-1-yl)-2-oxoethyl)-5-methylpiperazin-2-yl)methyl)morpholine-2-carboxamide)] | 10000 to 51300 | 10000 to 51300 | 31.6 to 501 | ++++ (FS>10,000) | 7.94 to 15.8 | +++ (10,000>FS>1,000) | 316 to 3310 | 10000 to 51300 | 7.94 to 15.8 | ++++ (FS>10,000) |
| C[C@@H]1CN(CC(=O)N2CC(C)(C)c3[nH]c(=O)c(Cc4cc(F)c(F)cc4F)cc32)[C@@H](CN2CCO[C@H](C(=O)NCc3ccc(CNC(=O)[C@@H]4CN(C[C@H]5CN[C@H](C)CN5CC(=O)N5CC(C)(C)c6[nH]c(=O)c(Cc7cc(F)c(F)cc7F)cc65)CCO4)cc3)C2)CN1 [Compound 175, (2S,2′S)-N,N′-(1,4-phenylenebis(methylene)) bis(4-(((2R,5R)-1-(2-(3,3-dimethyl-5-oxo-6-(2,4,5-trifluorobenzyl)-2,3,4,5-tetrahydro-1H-pyrrolo[3,2-b]pyridin-1-yl)-2-oxoethyl)-5-methylpiperazin-2-yl)methyl)morpholine-2-carboxamide)] | 1000 to 3160 | 10000 to 51300 | 15.8 to 31.6 | ++++ (FS>10,000) | 15.8 to 31.6 | +++ (10,000>FS>1,000) | 0.49 to 12.6 | 3160 to 10000 | 7.94 to 15.8 | +++ (10,000>FS>1,000) |
